Entries after “also recorded” stand apart in the source; their conditions may differ. Read-outs that look alike come from different tables or passages of the source.
Legend:
MDR1 [1] = type: cell-based, human
Protocol: The times of drug exposure are indicated.
(§1) (Commercially-available kits (for example, from GIBCO/BRL, Gaithersburg, Md.) can be advantageously modified for making cDNA using random hexamers.) PCR is then performed using the following primers: […]
Next, it was tested whether drug-induced MDR1 expression was maintained after the cytotoxic treatment. […] At different time points, MDR1 expression in the surviving cells was analyzed by dye efflux and immunofluorescence labeling with UIC2 (FIG. 3c) or by cDNA-PCR (FIG. 4e).

tumor [2] = conditions: cited from earlier work
tumor [3] = conditions: nude mice; Meyer et al., 1989; cited from earlier work
MDR1 [4] = assay: Inhibition of cytotoxic drug (Ara-C) induced MDR1 expression by protein kinase inhibitors; type: cell-based, human
Protocol: FIG. 5. Effect of protein kinase inhibitors on MDR1 mRNA induction by cytotoxic drugs in H9 cells. […]
as §1
(where β2 M represents β2 microglobulin). PCR was performed for β2 M experiments under a regime consisting of 1 cycle comprising denaturation at 94° C. for 3 minutes, primer annealing at 60° C. for 30 seconds, and primer extension at 72° C. for 1 minute, followed by 19 cycles comprising denaturation at 94° C. for 30 seconds, primer annealing at 60° C. for 30 seconds, and primer extension at 72° C. for 1 minute, followed by a final cycle comprising denaturation at 94° C. for 30 seconds, primer annealing at 60° C. for 30 seconds, and primer extension at 72° C. for 5 minutes. MDR1 cDNA sequences were amplified using the identical protocol as for β2 M, but extending the amplification from 19 cycles to 25 cycles. In addition, the cDNA-PCR amplification protocol contained the following modifications: (i) Taq DNA polymerase was added to the PCR mixtures after initial heating of the samples to 94° C. (ii) The yield of the β2 -microglobulin-specific band, obtained after 22-28 cycles of PCR, was used as the primary criterion for equalizing the starting amounts of the cDNA templates in different preparations, in order to account for differential RNA degradation in cells subjected to different types of treatment. […] PCR products were detected by autoradiography.
Cells were plated in 6-well Falcon tissue culture plates at 3,300 cells per well, and incubated in the appropriate concentrations of drugs. Each of the protein kinase inhibitors to be tested were added at their appropriate final concentrations 45 minutes prior to MDR1 induction by the addition of Ara-C or TPA, with the exception of herbimycin A, which was added 12 hours prior to Ara-C or TPA, and tyrphostins A25 and B46, which were each added 16 hours prior to MDR1 induction by the addition of Ara-C or TPA. Cells were incubated overnight (TPA) or for 10 hours (Ara-C) at 37° C. under an atmosphere of 5% CO2 after the addition of the MDR1 inducing agents before harvesting for cDNA-PCR analysis.
In addition to these conditions, the analysis of certain drugs imposed added requirements. For experiments using calphostin C, cells were incubated under direct white light illumination. For experiments using D,L-threo-sphingosine, the cell culture medium was pre-treated with the appropriate concentration of the drug for one hour at 37° C. with continuous gentle mixing. After this pre-treatment, cells were resuspended in media supplemented with drug and incubated for 45 minutes as described above.
cDNA-PCR analyses on each culture treated with drugs, or in control cultures incubated in the absence or presence of Ara-C or TPA alone, were performed as described in Section 6.1.3 above.
To further evaluate the capacity of protein kinase inhibitors to suppress MDR1 induction by cytotoxic drugs and PKC agonists, H-9 human T cell leukemia cells were used in cDNA-PCR assays to examine induced MDR1 mRNA expression levels in the presence of such protein kinase inhibitors.

MRP = assay: Inhibition of MRP expression in H-9 cells; type: cell-based, human; design: Inhibition of MRP Expression: key to the marks not given beside the values
Protocol: PCR was performed using the following primers: […]
(where β2 M represents β2 microglobulin). PCR was performed for β2 M experiments under a regime consisting of 1 cycle comprising denaturation at 94° C. for 3 minutes, primer annealing at 60° C. for 30 seconds, and primer extension at 72° C. for 1 minute, followed by 19 cycles comprising denaturation at 94° C. for 30 seconds, primer annealing at 60° C. for 30 seconds, and primer extension at 72° C. for 1 minute, followed by a final cycle comprising denaturation at 94° C. for 30 seconds, primer annealing at 60° C. for 30 seconds, and primer extension at 72° C. for 5 minutes.

PKC = conditions: literature; cited from earlier work

O=c1[nH]cc(F)c(=O)[nH]1 [5-fluorouracil]
MDR1 induction, mRNA and protein levels (MDR1 [1]): MDR1 induction, both at the mRNA and at the protein levels, was observed

CCN(CC)CCN1C(=O)c2c(c3c4cccc(Cl)c4n([C@@H]4O[C@H](CO)[C@@H](OC)[C@H](O)[C@H]4O)c3c3[nH]c4c(Cl)cccc4c23)C1=O [BMY 27557, 8-N-(diethylaminoethyl) rebeccamycin]
optimal total dose, i.p., nine equal injections per day at 12 mg/kg/injection (tumor [2]; i.p., Schurig et al., 1990): 108 mg/kg | optimal total dose, i.p., single dose (tumor [2]; i.p., Schurig et al., 1990): 64 mg/kg | antitumor activity in vivo (tumor [2]; literature): antitumor activity in vivo

CO[C@@H]1[C@H](N(C)C(=O)c2ccccc2)C[C@H]2O[C@]1(C)n1c3ccccc3c3c4c(c5c6ccccc6n2c5c31)C(=O)NC4 [CGP 41 251]
anti-tumor effect at fraction of MTD (tumor [3]): 1/10 | maximum tolerated dose (MTD) (tumor [3]): 250 mg/kg

COc1c(CC(C)OC(=O)Oc2ccc(O)cc2)c2c3c(CC(C)OC(=O)c4ccccc4)c(OC)c(=O)c4c(O)cc(OC)c(c5c(OC)cc(O)c(c1=O)c52)c43 (centres unmarked) [calphostin C]
prevention of MDR1 induction by chemotherapeutic drugs (MDR1 [4]; 1 μM with white light illumination): prevent MDR1 induction | inhibition of Ara-C induced MDR1 expression (MDR1 [4]; H-9 cells, 0.1 μM with white light illumination): greatly reduced | inhibition of Ara-C induced MDR1 expression (MDR1 [4]; H-9 cells, 1 μM with white light illumination): capable of inhibiting MDR1 expression

COc1ccc2c(c[n+](C)c3c4cc5c(cc4ccc23)OCO5)c1OC [chelerythrine]
Inhibition of MRP Expression (MRP; 1-5 μM): ++++ | inhibition of MRP expression (MRP; 1-5 μM): strongly inhibited; also recorded: capable of inhibiting MRP expression | prevention of MDR1 induction by chemotherapeutic drugs (MDR1 [4]; 5 μM): prevent MDR1 induction | inhibition of Ara-C induced MDR1 expression (MDR1 [4]; H-9 cells, 1 μM and 5 μM): Progressive dose-dependent inhibition

N.N.[Cl][Pt][Cl] [cisplatin]
MDR1 mRNA induction (MDR1 [1]; K562 cells): induce MDR1 mRNA expression | MDR1 induction, mRNA and protein levels (MDR1 [1]; human leukemia and solid-tumor derived cell lines, subpopulation of treated cells): MDR1 induction, both at the mRNA and at the protein levels, was observed

COc1cc([C@@H]2c3cc4c(cc3[C@@H](O[C@@H]3O[C@@H]5CO[C@@H](C)O[C@H]5[C@H](O)[C@H]3O)[C@H]3COC(=O)[C@H]23)OCO4)cc(OC)c1O [etoposide]
MDR1 induction, mRNA and protein levels (MDR1 [1]): MDR1 induction, both at the mRNA and at the protein levels, was observed

O=c1c(-c2ccc(O)cc2)coc2cc(O)cc(O)c12 [genistein]
inhibition of Ara-C induced MDR1 expression (MDR1 [4]; 150 μM): only weakly inhibited Ara-C induced MDR1 expression | inhibition of Ara-C induced MDR1 expression (MDR1 [4]; H9 cells, 25 μM Ara-C 10 h, 150 μM): +

COC1C=CC=C(C)C(=O)NC2=CC(=O)C=C(C2=O)C(OC)C(C)CC(OC)C(OC)C(C)C=C(C)C1OC(N)=O (centres unmarked) [herbimycin A]
inhibition of Ara-C induced MDR1 expression (MDR1 [4]; 0.35-3 μM): little or no capacity to inhibit Ara-C induced MDR1 expression; also recorded: ineffective at inhibiting MDR1 induction by Ara-C | inhibition of Ara-C induced MDR1 expression (MDR1 [4]; H9 cells, 25 μM Ara-C 10 h, 0.3-3 μM (12 h)): -

CN(Cc1cnc2nc(N)nc(N)c2n1)c1ccc(C(=O)N[C@@H](CCC(=O)O)C(=O)O)cc1 [methotrexate]
MDR1 induction, mRNA and protein levels (MDR1 [1]): MDR1 induction, both at the mRNA and at the protein levels, was observed | MDR1 mRNA expression (MDR1 [1]): MDR1 mRNA expression was induced | maintenance of MDR1 expression after removal of the drug (MDR1 [1]): least several weeks

N#CC(C#N)=Cc1cc(O)c(O)c(O)c1 [tyrphostin A25]
inhibition of Ara-C induced MDR1 expression (MDR1 [4]; H-9 cells, 50-100 μM): strongly inhibit Ara-C induced MDR1 expression; also recorded: inhibit Ara-C induced MDR1 expression

N#CC(=Cc1ccc(O)c(O)c1)C(=O)NCCCc1ccccc1 [tyrphostin B46]
inhibition of Ara-C induced MDR1 expression (MDR1 [4]; H-9 cells, 50-100 μM): strongly inhibit Ara-C induced MDR1 expression; also recorded: inhibit Ara-C induced MDR1 expression

neomycin sulfate
Inhibition of MRP Expression (MRP; 10 mM): ++++ | inhibition of MRP expression (MRP; 10 mM): strongly inhibited; also recorded: capable of inhibiting MRP expression | inhibition of protein kinase C (PKC): protein kinase C inhibitors | inhibition of Ara-C induced MDR1 expression (MDR1 [4]; H-9 cells, 10 mM): inhibit Ara-C induced MDR1 expression

Reference: patent US5972598A, “Methods for preventing multidrug resistance in cancer cells” (priority 1995, dated 1999)
